Source: patent publication US7894880B2, “Measurement of renal extraction fraction using contrast enhanced computed tomography” (The Board of Trustees of the Leland Stanford Junior …, priority 2003, dated 2011)
“And” between values parts separate entries of the source, which are not always exact repeats. Equal entries are not always repeated.

Assay: Renal extraction fraction by contrast enhanced CT after iohexol injection (retrospective study)
Assay type: in vivo, adult patients
Text: [formula] where CA is the concentration of a filtration marker in the systemic arterial blood entering the kidney, and CV is the corresponding concentration in the renal venous blood. Standard radiographic contrast agents, including iothalamate and iohexol, may be used as filtration markers since they are freely filtered by the kidney, and neither secreted nor reabsorbed. Assuming linear increase in CT number with concentration of contrast agent, CA will be proportional to the increase in CT number of the systemic arterial blood following contrast injection, or CTA-CTPRE, where CTPRE and CTA are the pre- and post- contrast CT numbers of the systemic arterial blood. Similarly, CTV will be proportional to CTV-CTPRE, where CTV is the post-contrast CT number of a renal vein. Substituting into equation [1] yields: […]
In a retrospective study, CT scans of 10 adult patients (mean age 58.1 years, 7 female) having no known renal disease, and one patient with unilateral renal obstruction were studied. All patients had precontrast scans followed by injection of 120 ml. of iohexol (Omnipaque 350, Amersham Health, Princeton, N.J.) at 2 ml/sec., and enhanced scans through the kidney vasculature, delayed for 3 to 5 minutes after the end of the contrast injection. CT section thickness varied from 2.5 mm to 5 mm. Pre- and post-contrast delayed images were evaluated using ROI measurements taken within the abdominal aorta in the region of the renal vessels, and within right and left renal veins. Multiple measurements, one from each of several axial scans, within each vessel were obtained, varying from 2 to 4 measurements for each renal vein, and 4-8 measurements for the abdominal aorta. Mean CT number values were subsequently computed for each vessel. EF values for the right and left kidneys in each subject were then computed for each patient using equation [2] above. Propagation of error was used to estimate the standard deviation in the computed EF values, as expressed in:
[formula] where σ^2CTA, σ^2CTV, and σ^2CTPRE are the variances in the mean values for each region.

[1] = 10 patients with no history of renal disease, weighted by the inverse of the variance
[2] = individual normal subjects (no known renal disease), one line per patient, 120 ml iohexol at 2 ml/sec, scans delayed 3 to 5 minutes after injection
[3] = patient with unilateral renal obstruction

Left renal EF, weighted mean ± SD [1]: 12.3±1.3%
Right renal EF, weighted mean ± SD [1]: 12.6±1.0%
EF in the obstructed left kidney [3]: 9.7±4.0%
EF in the unobstructed right kidney [3]: 29.6±5.6%
SMILES: CC(=O)N(CC(O)CO)c1c(I)c(C(=O)NCC(O)CO)c(I)c(C(=O)NCC(O)CO)c1I (stereo not drawn) [iohexol]
Left Renal EF (calculated extraction fraction ± s.d.) [2]: 7.7 ± 6.3% and 9.1 ± 1.5% and 7.8 ± 2.6% and 21.1 ± 1.7% and 22.2 ± 3.0% and 8.3 ± 1.9% and 17.7 ± 4.7% and 8 ± 3.2% and 7.7 ± 3.1% and 7.7 ± 5.3%
Right Renal EF (calculated extraction fraction ± s.d.) [2]: 8.3 ± 9.6% and 16.2 ± 11.6% and 7.6 ± 1.6% and 16.8 ± 3.4% and 16.7 ± 2.2% and 8 ± 5.4% and 16.2 ± 4.6% and 10.6 ± 4.5% and 18.8 ± 2.8% and 13.3 ± 3.1%
